Assay results as given in paper PMC2783032, “Affinity maturation generates greatly improved xyloglucan-specific carbohydrate binding modules” (BMC Biotechnology, 2009).

What was measured:
Test in all cases: Isothermal titration calorimetry at 25 °C in 20 mM HEPES, pH 8.0, 2 mM CaCl2, 50 uM protein in the cell titrated with oligosaccharide, single-site non-linear regression.
Type in all cases: binding
XG-34/1-X = system: T1, XG-34/1-X
T1 construct: CBM4-2 domain scaffold, hexahistidine tag (pET22b, E. coli BL21 (DE3))
Experimental: (§1) Isothermal titration calorimetry (ITC) measurements were performed at 25°C following standard procedures using a Microcal Omega titration calorimeter (Northampton, MA, USA). XXXG and XLLG (Figure 1) were prepared as previously described. Prior to analysis, the CBM were extensively dialyzed against 20 mM HEPES, pH 8.0 containing 2 mM CaCl2. The same buffer was used to dissolve tamarind seed xyloglucan, XXXG, XLLG and galactose to minimize heats of dilution. 50 μM protein samples were stirred at 300 rpm in a 1.4331 ml reaction cell. Ligands were injected as a single 1 μl aliquot followed by 27 successive 10 μl aliquots at 300 s intervals (2 mM, 7.5 mM or 10 mM XXXG; 1 mM or 5 mM XLLG; 2.5% or 5% w/v xyloglucan; 10 mM galactose). Integrated heat effects were analyzed by non-linear regression using a single-site binding model.

XG-34 = molecular target: T2, XG-34 (Rhodothermus marinus, UniProt Q7WTN6, E282H/E322D/F286L/F320H/Q321D/W279Y/Y359F); details: read-out: KA (10^3 M^-1)
T2 construct: CBM4-2 domain scaffold, hexahistidine tag (pET22b, E. coli BL21 (DE3))
Experimental: as §1

XG-34/2-VI = system: T3, XG-34/2-VI
T3 construct: CBM4-2 domain scaffold, hexahistidine tag (pET22b, E. coli BL21 (DE3))
Experimental: as §1

Structure (SMILES)	KA (10^3 M^-1) (XG-34/1-X)	Kd (XG-34) [µM]	KA (10^3 M^-1) (XG-34/2-VI)
OC[C@H]1OC(O)[C@H](O)[C@@H](O)[C@@H]1O[C@@H]1O[C@H](CO[C@H]2OC[C@@H](O)[C@H](O)[C@H]2O)[C@@H](O[C@@H]2O[C@H](CO[C@H]3OC[C@@H](O)[C@H](O)[C@H]3O)[C@@H](O[C@@H]3O[C@H](CO[C@H]4OC[C@@H](O)[C@H](O)[C@H]4O)[C@@H](O)[C@H](O)[C@H]3O)[C@H](O)[C@H]2O)[C@H](O)[C@H]1O (stereo partly shown) [XXXG, xyloglucan oligosaccharide XXXG (non-galactosylated heptasaccharide, Xyl3Glc4)]	~ ≈ 1 M-1	~1000	~ ≈ 1 M-1
OC[C@H]1O[C@@H](O[C@H]2[C@@H](OC[C@H]3O[C@@H](O[C@H]4[C@H](O)[C@@H](O)[C@H](O[C@H]5[C@H](O)[C@@H](O)C(O)O[C@@H]5CO)O[C@@H]4CO[C@H]4OC[C@@H](O)[C@H](O)[C@H]4O[C@@H]4O[C@H](CO)[C@H](O)[C@H](O)[C@H]4O)[C@H](O)[C@@H](O)[C@@H]3O[C@@H]3O[C@H](CO[C@H]4OC[C@@H](O)[C@H](O)[C@H]4O)[C@@H](O)[C@H](O)[C@H]3O)OC[C@@H](O)[C@@H]2O)[C@H](O)[C@@H](O)[C@H]1O (stereo partly shown) [XLLG, xyloglucan oligosaccharide XLLG (galactose-containing nonasaccharide, Gal2Xyl3Glc4)]		~1000	
